Tested on: hypoxia-responsive element (HRE) reporter, HEK293A cells
Experiment: Dual-luciferase reporter assay of HIF2α transcriptional activity (VEGFA-HRE) in HEK293A cells
Format: cell-based
Conditions: for HIF2α transcriptional activity, Firefly(RLU)/Renilla(RLU) (Normalized To WT Mean): Fig. 6a, normal oxygenated conditions; for HIF2α transcriptional activity, Firefly(RLU)/Renilla(RLU) (Normalized to WT Mean): Fig. 6b; for HIF2α transcriptional activity, Firefly(RLU)/Renilla(RLU) (Normalized to WT Mean) / HRE-driven transcriptional activity (in words): normoxic conditions; for HRE-driven transcriptional activity (in words): relative to HIF2α WT or other mutant
Excerpt: The following previously described plasmids were used in this study: pcDNA3-HA-VHL30[28] and pET-46-HIS6-PHD2[4]. pGL3-VEGFA-HRE was generated by amplifying nucleotides 1271-1797 of human VEGFA CDS (AH001553.2) using primers introducing 5’ KpnI and 3’ XhoI sites; digested PCR products were subcloned into pGL3-Basic (Promega) cut with KpnI and XhoI. pRL-SV40 was obtained from Promega. pcDNA3-HA-HIF2α has been previously described. Class 1 (D539N, A530V, P531A, Y532C) and Class 2 (M535T, G537R, P534R, Y532H) HIF2α mutants, as well as mutant P405A, were generated using QuikChange site-directed mutagenesis (Agilent) and confirmed by DNA sequencing. pcDNA3-HA-HIF2α -P405A/P531A was obtained from Addgene (Addgene plasmid # 18956)[29]. The α-HA tag antibody was obtained from Cell Signaling (C29F4). HIFα-CODD peptides were custom synthesized by Genscript and supplied at ≥ 95% purity. All synthesized peptides were C-terminally amidated, peptides used for MST binding studies and crystallography were N-terminally acetylated and peptides used for the indirect hydroxylation assays were N-terminally biotinylated. For crystallography and MST experiments peptides were dissolved directly into 50 mM Tris pH 8.0 buffer and for indirect hydroxylation assays N-terminally biotinylated peptides were initially dissolved in DMSO to create stock solutions and further diluted into aqueous buffers for immobilization on streptavidin agarose beads. The sequences of each peptide can be found in Supplementary Table 1.
HEK293A cells were maintained in DMEM (Wisent #319-015) supplemented with 10% (v/v) Fetal Bovine Serum (FBS, Wisent #098-150) in a humidified atmosphere at 37 °C and 5% CO2. Transfection complexes containing 2 μg of total DNA (0.8 ug pcDNA3-HA, 0.9 μg pGL3-VEGFa-HRE, 0.1 μg pRL-SV40, and 0.2 μg of either pcDNA3-HA-HIF2α-WT or mutant) and 8 ug Polyethyleneimine pH 7.2 (Polysciences, Cat #23966) in 400 μl OptiMEM™ Reduced Serum Medium (Gibco #31985070) were incubated for 15 min at room temperature, then were added to 5 × 10^5 HEK293A cells (diluted in 400 μl OptiMEM™) and incubated for an additional 5 min. Mixture was plated in six-well plates containing 2 ml complete medium and incubated at 37 °C, 5% CO2 for 24 h. Firefly luciferase and Renilla luciferase activity were measured with the Dual-Luciferase Reporter Assay System (Promega #E1960) according to the manufacturer’s instructions. Measurements (1 s) were recorded using a Varioskan Lux microplate reader (Thermo Fisher Scientific). For each sample, firefly RLU values were divided by corresponding Renilla RLU values.

Substance | HIF2α transcriptional activity, Firefly(RLU)/Renilla(RLU) (Normalized To WT Mean) (Exp 1, 24 h) | HIF2α transcriptional activity, Firefly(RLU)/Renilla(RLU) (Normalized To WT Mean) (Exp 2, 24 h) | HIF2α transcriptional activity, Firefly(RLU)/Renilla(RLU) (Normalized To WT Mean) (Exp 3, 24 h) | HIF2α transcriptional activity, Firefly(RLU)/Renilla(RLU) (Normalized To WT Mean) (Exp 4, 24 h) | HIF2α transcriptional activity, Firefly(RLU)/Renilla(RLU) (Normalized To WT Mean) (Exp 5, 24 h) | HIF2α transcriptional activity, Firefly(RLU)/Renilla(RLU) (Normalized To WT Mean) (mean of Exp 1-5, 24 h) | HIF2α transcriptional activity, Firefly(RLU)/Renilla(RLU) (Normalized to WT Mean) (Exp 1, 24 h) | HIF2α transcriptional activity, Firefly(RLU)/Renilla(RLU) (Normalized to WT Mean) (Exp 2, 24 h) | HIF2α transcriptional activity, Firefly(RLU)/Renilla(RLU) (Normalized to WT Mean) (Exp3, 24 h) | HIF2α transcriptional activity, Firefly(RLU)/Renilla(RLU) (Normalized to WT Mean) (mean of Exp 1-3, 24 h) | HRE-driven transcriptional activity (in words) (listed as P405A mutant) | HRE-driven transcriptional activity (in words) (listed as P405A mutation) | HRE-driven transcriptional activity (in words) (listed as HIF2αP405A/P531A)
HIF2a-Y532H: Class 2 HIF2α mutant expressed from plasmid in HEK293A cells | 1.505 | 1.636 | 0.8256 | 1.673 | 0.9402 | 1.316 |  |  |  |  |  |  | 
HIF2a-P534R: Class 2 HIF2α mutant expressed from plasmid in HEK293A cells | 1.1133 | 1.547 | 1.102 | 1.425 | 0.8617 | 1.21 |  |  |  |  |  |  | 
HIF2a-WT: HA-HIF2α WT expressed from pcDNA3-HA-HIF2α in HEK293A cells | 1.095 | 1.349 | 0.5003 | 1.339 | 0.7176 | 1 | 0.6881 | 1.449 | 0.8624 | 1 |  |  | 
HIF2a-G537R: Class 2 HIF2α mutant expressed from plasmid in HEK293A cells | 1.297 | 1.639 | 0.7606 | 1.668 | 0.917 | 1.256 |  |  |  |  |  |  | 
HIF2a-P531A: Class 1 HIF2α mutant (CODD site mutant) expressed from plasmid in HEK293A cells | 2.696 | 2.508 | 2.211 | 4.182 | 1.7617 | 2.672 | 2.003 | 3.782 | 2.069 | 2.618 |  |  | 
HIF2a-M535T: Class 2 HIF2α mutant expressed from plasmid in HEK293A cells | 1.412 | 1.394 | 0.5168 | 1.444 | 0.9762 | 1.149 |  |  |  |  |  |  | 
HIF2a-Y532C: Class 1 HIF2α mutant expressed from plasmid in HEK293A cells | 1.579 | 1.687 | 2.039 | 3.004 | 1.351 | 1.932 |  |  |  |  |  |  | 
HIF2a-D539N: Class 1 HIF2α mutant expressed from plasmid in HEK293A cells | 2.166 | 1.679 | 1.625 | 2.569 | 1.2135 | 1.85 |  |  |  |  |  |  | 
HIF2a-A530V: Class 1 HIF2α mutant expressed from plasmid in HEK293A cells | 2.033 | 1.3534 | 1.897 | 3.054 | 1.561 | 1.98 |  |  |  |  |  |  | 
HIF2a-P405A: HIF2α NODD site mutant expressed from plasmid in HEK293A cells |  |  |  |  |  |  | 0.6521 | 1.374 | 0.7703 | 0.9323 | transcriptional activity comparable to wild-type HIF2α | no significant increase in HIF2α transcriptional activation activity | 
HIF2a-P405A/P531A: HIF2α NODD and CODD site double mutant (Addgene plasmid 18956) |  |  |  |  |  |  | 1.594 | 4.627 | 2.493 | 2.905 |  |  | indistinguishable transcriptional activity from HIF2αP531A single mutant

Reference: article PMC10902354, “Deficiency in PHD2-mediated hydroxylation of HIF2α underlies Pacak-Zhuang syndrome” (Communications Biology, 2024)
